Measured values reported in DBAASP.
≈ marks a conversion by molar mass, not a printed value. Where “and” joins values, the source holds several entries; their conditions need not be identical. Identical values can stand only once.

Columns and labels:
Experiment in all cases: ≥ marks a high value that may be exact or a test limit, other limits are often not marked, values filed in µg/mL are converted to µM
[1] = test system: Staphylococcus aureus ATCC 25923
[2] = test system: Escherichia coli ATCC 25922
[3] = test system: Staphylococcus aureus ATCC 29213
Staphylococcus aureus = test system: Staphylococcus aureus
Escherichia coli = test system: Escherichia coli
[4] = test system: Pseudomonas aeruginosa ATCC 27853
Pseudomonas aeruginosa = test system: Pseudomonas aeruginosa

Row | MIC [1] [µM] | MIC [2] | MIC [4] [µM] | further results | SMILES
1 | 49 (≈ 63.6 µg/mL) | 24.6 µM (≈ 31.9 µg/mL) |  |  | CC(C)C[C@H](NC(=O)CNC(=O)[C@H](CCCCN)NC(=O)CNC(=O)[C@H](C)NC(=O)[C@H](C)N)C(=O)N[C@H](C(=O)N[C@@H](CO)C(=O)N[C@@H](CC(N)=O)C(=O)N[C@@H](CC(C)C)C(=O)N[C@@H](CC(C)C)C(=O)N[C@@H](CCC(=O)O)C(=O)N[C@@H](CCCCN)C(N)=O)C(C)C [AAGKGLVSNLLEK]
2 | > 100 | > 100 µM |  |  | CC[C@H](C)[C@H](NC(=O)[C@@H](N)Cc1ccccc1)C(=O)N[C@@H](CCCN=C(N)N)C(=O)N[C@@H](CO)C(=O)N[C@@H](CC(C)C)C(=O)N[C@@H](Cc1ccccc1)C(=O)N[C@@H](Cc1ccccc1)C(=O)N[C@@H](Cc1ccccc1)C(N)=O [FIRSLFFF]
3 |  | 10 µM (≈ 16.6 µg/mL) |  | MIC [3]: > 40 µM | CC[C@H](C)[C@H](NC(=O)[C@H](CCCN=C(N)N)NC(=O)[C@H](CCC(N)=O)NC(=O)[C@@H](NC(=O)CNC(=O)[C@H](CCCN=C(N)N)NC(=O)[C@H](CCCCN)NC(=O)[C@@H](N)Cc1ccccc1)C(C)C)C(=O)N[C@@H](CCCCN)C(=O)N[C@@H](CC(=O)O)C(=O)N[C@@H](Cc1ccccc1)C(=O)N[C@@H](CC(C)C)C(=O)N[C@@H](CCCN=C(N)N)C(=O)O [FKRGVQRIKDFLR]
4 |  | 13.9 µM and 27.8 µM |  |  | CC(C)C[C@H](NC(=O)[C@H](CC(C)C)NC(=O)[C@H](CCCCN)NC(=O)[C@H](CCCCN)NC(=O)[C@H](CC(C)C)NC(=O)[C@H](Cc1ccccc1)NC(=O)[C@H](CCCCN)NC(=O)[C@H](CC(C)C)NC(=O)[C@@H](N)Cc1ccccc1)C(N)=O [FLKFLKKLL]
5 | 14.3 (≈ 16 µg/mL) |  |  |  | CC[C@H](C)[C@H](NC(=O)[C@H](CCCCN)NC(=O)[C@H](CC(C)C)NC(=O)[C@@H](N)Cc1ccccc1)C(=O)N[C@@H](CC(C)C)C(=O)N[C@@H](CCCCN)C(=O)N[C@@H](CCCCN)C(=O)N[C@@H](CC(C)C)C(=O)N[C@@H](CC(C)C)C(N)=O [FLKILKKLL]
6 |  |  |  | MIC (Staphylococcus aureus): > 200 µM | CC[C@H](C)[C@H](NC(=O)[C@@H]1CCCN1C(=O)[C@H](CC(C)C)NC(=O)[C@@H](N)Cc1ccccc1)C(=O)N[C@@H](C)C(=O)N[C@@H](CO)C(=O)N[C@@H](CC(C)C)C(=O)N[C@@H](CC(C)C)C(=O)NCC(=O)N[C@@H](CCCCN)C(=O)N[C@@H](Cc1ccc(O)cc1)C(=O)N[C@@H](CC(C)C)C(=O)O [FLPIASLLGKYL]
7 | 3 (≈ 4.95 µg/mL) | 6 µM (≈ 9.9 µg/mL) |  |  | CC(C)[C@H](NC(=O)[C@H](CCCN=C(N)N)NC(=O)[C@@H](N)Cc1ccccc1)C(=O)N[C@H](C(=O)N[C@@H](Cc1c[nH]c2ccccc12)C(=O)N[C@@H](CCCN=C(N)N)C(=O)N[C@H](C(=O)N[C@@H](CCCCN)C(=O)N[C@@H](Cc1c[nH]c2ccccc12)C(=O)N[C@@H](Cc1c[nH]c2ccccc12)C(=O)N[C@@H](CCCCN)C(=O)NCC(N)=O)[C@@H](C)O)[C@@H](C)O [FRVTWRTKWWKG]
8 | 5.6 (≈ 11.9 µg/mL) |  | 11.2 (≈ 23.9 µg/mL) | MIC (Escherichia coli): 11.2 µM (≈ 23.9 µg/mL) | CC[C@H](C)[C@H](NC(=O)CN)C(=O)NCC(=O)N[C@@H](C)C(=O)N[C@H](C(=O)N[C@@H](CC(C)C)C(=O)N[C@@H](CCCCN)C(=O)N[C@H](C(=O)N[C@@H](CC(C)C)C(=O)N[C@@H](C)C(=O)N[C@@H](CC(C)C)C(=O)N[C@H](C(=O)N[C@@H](CO)C(=O)N[C@@H](Cc1c[nH]c2ccccc12)C(=O)N[C@H](C(=O)N[C@@H](CCCCN)C(=O)N[C@@H](CCCN=C(N)N)C(=O)N[C@@H](CCCCN)C(=O)N[C@@H](CCCN=C(N)N)C(N)=O)[C@@H](C)CC)[C@@H](C)CC)C(C)C)C(C)C [GIGAVLKVLALISWIKRKR]
9 |  | 160 µM (≈ 293 µg/mL) | 80 (≈ 147 µg/mL) | MIC [3]: 40 µM (≈ 73.3 µg/mL) | NCC(=O)N[C@@H](CCCN=C(N)N)C(=O)N[C@@H](CCCN=C(N)N)C(=O)N1CCC[C@H]1C(=O)N[C@@H](CCCN=C(N)N)C(=O)N1CCC[C@H]1C(=O)N[C@@H](CCCN=C(N)N)C(=O)N1CCC[C@H]1C(=O)N[C@@H](CCCN=C(N)N)C(=O)N1CCC[C@H]1C(=O)N[C@@H](Cc1ccccc1)C(=O)N[C@@H](Cc1ccccc1)C(=O)N[C@@H](Cc1ccccc1)C(=O)N[C@@H](Cc1ccccc1)C(=O)O [GRRPRPRPRPFFFF]
10 | > 70 | > 70 µM |  |  | CC[C@H](C)[C@H](NC(=O)[C@H](CCCN=C(N)N)NC(=O)[C@@H](N)CCCCN)C(=O)N[C@@H](CCCCN)C(=O)N[C@H](C(=O)N[C@@H](CC(C)C)C(=O)N[C@@H](CC(C)C)C(N)=O)[C@@H](C)O [KRIKTLL]
11 |  |  |  | MIC (Pseudomonas aeruginosa): 5.16 µM (≈ 12.5 µg/mL) | CC[C@H](C)[C@H](NC(=O)[C@H](Cc1ccccc1)NC(=O)[C@H](CO)NC(=O)[C@H](CCCCN)NC(=O)[C@H](Cc1c[nH]c2ccccc12)NC(=O)[C@@H](N)CCCCN)C(=O)N[C@@H](CCCCN)C(=O)N[C@@H](CCCCN)C(=O)N[C@@H](CC(C)C)C(=O)N[C@@H](C)C(=O)N[C@@H](CO)C(=O)N[C@@H](CCCCN)C(=O)N[C@@H](Cc1ccccc1)C(=O)N[C@@H](CC(C)C)C(=O)N[C@@H](Cc1cnc[nH]1)C(=O)N[C@@H](CO)C(=O)N[C@@H](C)C(=O)N[C@@H](CCCCN)C(=O)N[C@@H](CCCCN)C(=O)N[C@@H](Cc1ccccc1)C(N)=O [KWKSFIKKLASKFLHSAKKF]
12 |  | 131 µM (≈ 256 µg/mL) | > 131 | MIC [3]: 131 µM (≈ 256 µg/mL) | CC[C@H](C)[C@H](NC(=O)[C@H](CCSC)NC(=O)[C@H](C)NC(=O)[C@@H]1CCCN1C(=O)[C@@H](NC(=O)[C@@H](NC(=O)[C@H](CCCCN)NC(=O)[C@@H](NC(=O)[C@H](CC(C)C)NC(=O)CNC(=O)CNC(=O)[C@@H](N)CC(C)C)[C@@H](C)CC)[C@@H](C)CC)C(C)C)C(=O)N[C@H]1CSSC[C@@H](C(=O)O)NC(=O)[C@H](CCCCN)NC(=O)[C@H](CCCCN)NC(=O)[C@H]([C@@H](C)O)NC(=O)[C@H](C(C)C)NC(=O)[C@H](C)NC1=O [LGGLIKIVPAMICAVTKKC]
13 |  | > 55.3 µM | > 55.3 | MIC [3]: > 55.3 µM | CC[C@H](C)[C@H](NC(=O)[C@H](CCCCN)NC(=O)[C@H](CCCCN)NC(=O)[C@@H](N)CCC(N)=O)C(=O)N[C@@H](CCCN=C(N)N)C(=O)N[C@H](C(=O)N[C@@H](CCCN=C(N)N)C(=O)N[C@@H](C)C(=O)N[C@@H](CO)C(=O)N[C@@H](C)C(=O)O)C(C)C [QKKIRVRASA]
14 |  | 13.5 µM (≈ 16 µg/mL) | 13.5 (≈ 16 µg/mL) | MIC [3]: > 54.1 µM | CC[C@H](C)[C@H](NC(=O)[C@H](CCCCN)NC(=O)[C@H](CCCCN)NC(=O)[C@@H](N)CCC(N)=O)C(=O)N[C@@H](CCCN=C(N)N)C(=O)N[C@H](C(=O)N[C@@H](CCCN=C(N)N)C(=O)N[C@@H](CC(C)C)C(=O)N[C@@H](C)C(=O)N[C@@H](C)C(=O)O)C(C)C [QKKIRVRLAA]
15 |  | 412 µM (≈ 500 µg/mL) |  | MIC [3]: 206 µM (≈ 250 µg/mL) | CC(C)[C@H](NC(=O)[C@H](Cc1c[nH]c2ccccc12)NC(=O)[C@H](C)NC(=O)[C@@H](N)CCCN=C(N)N)C(=O)N[C@@H](C)C(=O)N[C@@H](Cc1c[nH]c2ccccc12)C(=O)N[C@@H](CCCN=C(N)N)C(=O)N[C@@H](CC(N)=O)C(=O)N[C@@H](CCCN=C(N)N)C(N)=O [RAWVAWRNR]
16 |  | > 100 µM | > 100 |  | CSCC[C@H](NC(=O)[C@H](CCCCN)NC(=O)[C@H](CCCCN)NC(=O)[C@H](CCCCN)NC(=O)[C@@H](N)CCCN=C(N)N)C(=O)N[C@@H](CCCCN)C(=O)N[C@@H](CCCCN)C(=O)N[C@@H](C)C(=O)N[C@@H](CC(C)C)C(=O)N[C@@H](CCC(N)=O)C(=O)N[C@@H](Cc1ccc(O)cc1)C(N)=O [RKKKMKKALQY]
17 |  |  |  | MIC (Staphylococcus aureus): 4 µM (≈ 7.95 µg/mL) | CC[C@H](C)[C@H](NC(=O)[C@H](CC(C)C)NC(=O)[C@@H](NC(=O)[C@H](CC(C)C)NC(=O)[C@H](CO)NC(=O)[C@H](CCCCN)NC(=O)[C@@H](NC(=O)[C@H](CC(C)C)NC(=O)[C@H](CCCCN)NC(=O)[C@H](CC(C)C)NC(=O)[C@H](CO)NC(=O)[C@H](CCCN=C(N)N)NC(=O)[C@H](CCCCN)NC(=O)[C@@H](NC(=O)[C@H](Cc1ccccc1)NC(=O)[C@@H](N)CO)[C@@H](C)CC)[C@@H](C)CC)C(C)C)C(=O)N[C@@H](CCCCN)C(=O)O [SFIKRSLKLIKSLVLIK]
18 |  | 16 µM (≈ 28.6 µg/mL) |  | MIC (Staphylococcus aureus): 5.59 µM (≈ 9.99 µg/mL); MIC (Escherichia coli): 11.2 µM (≈ 20 µg/mL) | CC(C)C[C@H](NC(=O)[C@H](Cc1ccccc1)NC(=O)[C@@H]1CCCN1C(=O)[C@H](Cc1c[nH]c2ccccc12)NC(=O)[C@H](Cc1c[nH]c2ccccc12)NC(=O)[C@H](Cc1c[nH]c2ccccc12)NC(=O)[C@@H]1CCCN1C(=O)[C@H](Cc1ccccc1)NC(=O)[C@H](CCCCN)NC(=O)[C@H](CCCCN)NC(=O)[C@@H](N)C(C)C)C(=O)N[C@@H](CCCCN)C(=O)N[C@@H](CCCCN)C(N)=O [VKKFPWWWPFLKK]
19 |  |  | 32 (≈ 31 µg/mL) |  | CC(C)C[C@H](NC(=O)[C@H](CC(C)C)NC(=O)[C@H](CC(N)=O)NC(=O)[C@H](CCCCN)NC(=O)[C@H](CC(C)C)NC(=O)[C@H](CC(N)=O)NC(=O)[C@@H](N)C(C)C)C(=O)N[C@@H](CCCN=C(N)N)C(=O)O [VNLKNLLR]
20 |  | 4 µM (≈ 7.51 µg/mL) |  |  | CC(C)C[C@H](NC(=O)[C@H](Cc1ccccc1)NC(=O)[C@@H]1CCCN1C(=O)[C@H](Cc1ccc(O)cc1)NC(=O)[C@H](Cc1c[nH]c2ccccc12)NC(=O)[C@H](Cc1c[nH]c2ccccc12)NC(=O)[C@@H]1CCCN1C(=O)[C@H](Cc1ccccc1)NC(=O)[C@H](CCCN=C(N)N)NC(=O)[C@H](CCCN=C(N)N)NC(=O)[C@@H](N)C(C)C)C(=O)N[C@@H](CCCN=C(N)N)C(=O)N[C@@H](CCCN=C(N)N)C(N)=O [VRRFPWWYPFLRR]
21 | 57.7 (≈ 49.9 µg/mL) | 115 µM (≈ 99.9 µg/mL) |  |  | NC(=O)[C@H](Cc1c[nH]c2ccccc12)NC(=O)[C@H](CCCN=C(N)N)NC(=O)[C@H](Cc1ccc(O)cc1)NC(=O)[C@H](CCCN=C(N)N)NC(=O)[C@@H](N)Cc1c[nH]c2ccccc12 [WRYRW]
